From patent publication US20110144159A1, “ETHER BENZYLIDENE PIPERIDINE ARYL CARBOXAMIDE COMPOUNDS USEFUL AS FAAH INHIBITORS” (Pfizer Inc, priority 2008, published 2011)

Target: T1, Human FAAH (Homo sapiens, UniProt O00519)
T1 construct: made in house
T1 sequence (O00519 32-579 limits assumed): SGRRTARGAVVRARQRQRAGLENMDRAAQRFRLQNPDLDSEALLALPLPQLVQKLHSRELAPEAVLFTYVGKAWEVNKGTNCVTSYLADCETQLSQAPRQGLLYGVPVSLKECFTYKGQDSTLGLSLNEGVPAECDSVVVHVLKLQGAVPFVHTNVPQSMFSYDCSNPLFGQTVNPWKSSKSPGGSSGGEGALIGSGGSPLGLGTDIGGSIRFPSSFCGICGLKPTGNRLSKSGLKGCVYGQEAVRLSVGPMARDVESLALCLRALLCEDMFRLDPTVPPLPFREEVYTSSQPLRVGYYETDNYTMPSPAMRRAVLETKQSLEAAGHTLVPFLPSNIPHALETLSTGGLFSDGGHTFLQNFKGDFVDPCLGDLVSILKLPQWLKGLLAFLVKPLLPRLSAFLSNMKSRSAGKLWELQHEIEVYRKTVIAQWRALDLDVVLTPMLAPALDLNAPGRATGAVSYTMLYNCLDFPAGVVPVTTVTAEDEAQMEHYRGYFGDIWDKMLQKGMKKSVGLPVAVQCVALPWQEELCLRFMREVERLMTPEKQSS
Test: FAAH assay (glutamate dehydrogenase-coupled, oleamide substrate, absorbance at 340 nm)
Type: biochemical
Conditions: irreversible inhibition potency
Procedure: A FAAH assay may be carried out in 384-well clear polystyrene plates in a total volume of 50 μl per well. All percents are by volume. To each well was placed the reaction mixture (40 μl) containing 1-4 nM FAAH, 50 mM NaPi, pH 7.4, 3 mM α-ketoglutarate, 0.15 mM NADH, 7.5 U/ml glutamate dehydrogenase, 2 mM ADP, 1 mM EDTA, and 0.1% Triton X-100 (The concentration shown for each component was the final concentration in the assay). To this mixture was added 5 μl of a compound of Examples 1 to 20 at various concentrations prepared in 50% DMSO (or 5 μl 50% DMSO for controls). This was immediately followed by the addition of 5 μl oleamide (500 μM) dissolved in 75% EtOH/25% DMSO and the reaction mixture was mixed for 1.5 min. The final concentrations of DMSO and EtOH in the assay are each 7.5%. The reactions was then incubated at 30° C. and the absorbance at 340 nm was collected over a period of 90 min with readings taken in 30-second intervals using SpectraMax Plus^384 Microplate Spectrophotometer (Molecular Devices, Sunnyvale, Calif.). Human FAAH used in the assay was prepared as described in the patent application WO 2006/067613. The purity of the enzyme used was greater than 98% based on an analysis by SDS-polyacrylamide gel electrophoresis followed by Coomassie Blue staining.
Initial velocity data (V) is obtained from the slopes of the initial progressive curves. They are plotted as a function of substrate concentration and fit to the Michaelis-Menten equation (1) using Prism (GraphPad Software, Inc., San Diego, Calif.) software to obtain Km and Vmax values.
To obtain potencies of irreversible inhibitors, progressive curves consistent with first order inhibition kinetics (two-step irreversible inhibition mechanism) are fit to equation (2) by nonlinear least squares regressions to determine kobs values at each inhibitor concentration, where [P]t is the absorbance at time t, V0 is a constant related to the steady state rate of the uninhibited reaction, and kobs is the first order rate constant for enzyme inactivation. The inhibitor dissociation constant (Ki) and the first order rate
constant of enzyme inactivation at infinite inhibitor concentration (kinact) are then obtained by fitting the kobs vs. [I] curves to equation (3).

Row | SMILES | hFAAH KInact/K
1 | O=C(Nc1cccnn1)N1CCC(=Cc2cccc(OC3CCCC3)c2)CC1 [Example 13, 4-[3-(cyclopentyloxy)benzylidene]-N-pyridazin-3-ylpiperidine-1-carboxamide] | 2570 M⁻¹ s⁻¹
2 | CCC(CC)Oc1cccc(C=C2CCN(C(=O)Nc3cccnc3)CC2)c1 [Example 14, 4-[3-(1-ethylpropoxy)benzylidene]-N-pyridin-3-ylpiperidine-1-carboxamide] | 718 M⁻¹ s⁻¹
3 | CCC(CC)Oc1cccc(C=C2CCN(C(=O)Nc3cccnc3)CC2)c1 [Example 15, 4-[3-(1-ethylpropoxy)benzylidene]-N-pyridin-3-ylpiperidine-1-carboxamide] | 216 M⁻¹ s⁻¹
4 | O=C(Nc1cccnn1)N1CCC(=Cc2cccc(OC3CCCCCC3)c2)CC1 [Example 16, 4-[3-(cycloheptyloxy)benzylidene]-N-pyridazin-3-ylpiperidine-1-carboxamide] | 2190 M⁻¹ s⁻¹
5 | O=C(Nc1cccnn1)N1CCC(=Cc2cccc(OC3CCOC3)c2)CC1 (stereo not shown) [Example 17, N-pyridazin-3-yl-4-[3-(tetrahydrofuran-3-yloxy)benzylidene]piperidine-1-carboxamide] | 371 M⁻¹ s⁻¹
6 | O=C(Nc1cccnc1)N1CCC(=Cc2cccc(OC3CCCCCC3)c2)CC1 [Example 18, 4-[3-(cycloheptyloxy)benzylidene]-N-pyridin-3-ylpiperidine-1-carboxamide] | 1020 M⁻¹ s⁻¹
7 | O=C(Nc1cccnn1)N1CCC(=Cc2cccc(OC3CCCOC3)c2)CC1 (stereo not shown) [Example 19, N-pyridazin-3-yl-4-[3-(tetrahydro-2H-pyran-3-yloxy)benzylidene]piperidine-1-carboxamide] | 783 M⁻¹ s⁻¹
8 | O=C(Nc1cccnc1)N1CCC(=Cc2cccc(OC3CCOC3)c2)CC1 (stereo not shown) [Example 20, N-pyridin-3-yl-4-[3-(tetrahydrofuran-3-yloxy)benzylidene]piperidine-1-carboxamide] | 451 M⁻¹ s⁻¹
9 | CCC(C)Oc1cccc(C=C2CCN(C(=O)Nc3cccnn3)CC2)c1 (stereo not shown) [Example 21, 4-(3-sec-butoxybenzylidene)-N-pyridazin-3-ylpiperidine-1-carboxamide] | 973 M⁻¹ s⁻¹
10 | CCC(C)Oc1cccc(C=C2CCN(C(=O)Nc3cccnn3)CC2)c1 (stereo not shown) [Example 22, 4-(3-sec-butoxybenzylidene)-N-pyridazin-3-ylpiperidine-1-carboxamide] | 1260 M⁻¹ s⁻¹
11 | CCC(C)Oc1cccc(C=C2CCN(C(=O)Nc3cccnc3)CC2)c1 (stereo not shown) [Example 23, 4-(3-sec-butoxybenzylidene)-N-pyridin-3-ylpiperidine-1-carboxamide] | 555 M⁻¹ s⁻¹
12 | CCC(C)Oc1cccc(C=C2CCN(C(=O)Nc3cccnc3)CC2)c1 (stereo not shown) [Example 24, 4-(3-sec-butoxybenzylidene)-N-pyridin-3-ylpiperidine-1-carboxamide] | 758 M⁻¹ s⁻¹
13 | C=CC(C)Oc1cccc(C=C2CCN(C(=O)Nc3cccnc3)CC2)c1 (stereo not shown) [Example 25, 4-{3-[(1-methylprop-2-en-1-yl)oxy]benzylidene}-N-pyridin-3-ylpiperidine-1-carboxamide] | 939 M⁻¹ s⁻¹
14 | C=CC(C)Oc1cccc(C=C2CCN(C(=O)Nc3cccnn3)CC2)c1 (stereo not shown) [Example 26, 4-{3-[(1-methylprop-2-en-1-yl)oxy]benzylidene}-N-pyridazin-3-ylpiperidine-1-carboxamide] | <10.0 M⁻¹ s⁻¹
15 | CCC(CC)Oc1cccc(C=C2CCN(C(=O)Nc3cccnn3)CC2)c1 [Example 27, 4-[3-(1-ethylpropoxy)benzylidene]-N-pyridazin-3-ylpiperidine-1-carboxamide] | 1030 M⁻¹ s⁻¹
16 | CCC(CC)Oc1cccc(C=C2CCN(C(=O)Nc3cccnn3)CC2)c1 [Example 28, 4-[3-(1-ethylpropoxy)benzylidene]-N-pyridazin-3-ylpiperidine-1-carboxamide] | 303 M⁻¹ s⁻¹

Row | SMILES | hFAAH KInact/K
17 | O=C(Nc1cccnc1)N1CCC(=Cc2cccc(OC3CC3)c2)CC1 [Example 29, 4-[3-(cyclopropyloxy)benzylidene]-N-pyridin-3-ylpiperidine-1-carboxamide] | 1300 M⁻¹ s⁻¹
18 | CCCC(C)Oc1cccc(C=C2CCN(C(=O)Nc3cccnn3)CC2)c1 (stereo not shown) [Example 30, 4-[3-(1-methylbutoxy)benzylidene]-N-pyridazin-3-ylpiperdine-1-carboxamide] | 3440 M⁻¹ s⁻¹
19 | CCCC(C)Oc1cccc(C=C2CCN(C(=O)Nc3cccnn3)CC2)c1 (stereo not shown) [Example 31, 4-[3-(1-methylbutoxy)benzylidene]-N-pyridazin-3-ylpiperidine-1-carboxamide] | 7450 M⁻¹ s⁻¹
20 | CC1CCCC(Oc2cccc(C=C3CCN(C(=O)Nc4cccnc4)CC3)c2)C1 (stereo not shown) [Example 32, 4-{3-[(3-methylcyclohexyl)oxy]benzylidene}-N-pyridin-3-ylpiperidine-1-carboxamide] | 712 M⁻¹ s⁻¹
21 | O=C(Nc1cccnn1)N1CCC(=Cc2cccc(OC3CC3)c2)CC1 [Example 33, 4-[3-(cyclopropyloxy)benzylidene]-N-pyridazin-3-ylpiperidine-1-carboxamide] | 1730 M⁻¹ s⁻¹
22 | CCCC(C)Oc1cccc(C=C2CCN(C(=O)Nc3cccnc3)CC2)c1 (stereo not shown) [Example 34, 4-[3-(1-methylbutoxy)benzylidene]-N-pyridin-3-ylpiperidine-1-carboxamide] | 1810 M⁻¹ s⁻¹
23 | CCCC(C)Oc1cccc(C=C2CCN(C(=O)Nc3cccnc3)CC2)c1 (stereo not shown) [Example 35, 4-[3-(1-methylbutoxy)benzylidene]-N-pyridin-3-ylpiperidine-1-carboxamide] | 2680 M⁻¹ s⁻¹
24 | CC1CCC(Oc2cccc(C=C3CCN(C(=O)Nc4cccnc4)CC3)c2)CC1 (stereo not shown) [Example 36, 4-{3-[(4-methylcyclohexyl)oxy]benzylidene}-N-pyridin-3-ylpiperidine-1-carboxamide] | 992 M⁻¹ s⁻¹
25 | CC(C)Oc1cccc(C=C2CCN(C(=O)Nc3cccnc3)CC2)c1 [Example 37, 4-(3-isopropoxybenzylidene)-N-pyridin-3-ylpiperidine-1-carboxamide] | 1380 M⁻¹ s⁻¹
26 | CC1CCCC(Oc2cccc(C=C3CCN(C(=O)Nc4cccnn4)CC3)c2)C1 (stereo not shown) [Example 38, 4-{3-[(3-methylcyclohexyl)oxy]benzylidene}-N-pyridazin-3-ylpiperidine-1-carboxamide] | 1090 M⁻¹ s⁻¹
27 | CC1CCC(Oc2cccc(C=C3CCN(C(=O)Nc4cccnn4)CC3)c2)CC1 (stereo not shown) [Example 39, 4-{3-[(4-methylcyclohexyl)oxy]benzylidene}-N-pyridazin-3-ylpiperidine-1-carboxamide] | 2090 M⁻¹ s⁻¹
28 | CC(C)Oc1cccc(C=C2CCN(C(=O)Nc3cccnn3)CC2)c1 [Example 40, 4-(3-isopropoxybenzylidene)-N-pyridazin-3-ylpiperidine-1-carboxamide] | 2350 M⁻¹ s⁻¹
29 | CCCC(CC)Oc1cccc(C=C2CCN(C(=O)Nc3cccnn3)CC2)c1 (stereo not shown) [Example 41, 4-[3-(1-ethylbutoxy)benzylidene]-N-pyridazin-3-ylpiperidine-1-carboxamide] | 1800 M⁻¹ s⁻¹
30 | CCCC(CC)Oc1cccc(C=C2CCN(C(=O)Nc3cccnc3)CC2)c1 (stereo not shown) [Example 42, 4-[3-(1-ethylbutoxy)benzylidene]-N-pyridin-3-ylpiperidine-1-carboxamide] | 551 M⁻¹ s⁻¹
31 | O=C(Nc1cccnc1)N1CCC(=Cc2cccc(OC3CCOCC3)c2)CC1 [Example 43, N-pyridin-3-yl-4-[3-(tetrahydro-2H-pyran-4-yloxy)benzylidene]piperidine-1-carboxamide] | 738 M⁻¹ s⁻¹
